Measurements published in patent publication US11882816B2, “Genetically engineered non-human mammal, construction method therefor and use thereof” (priority 2017, dated 2024).

How the values were obtained:
homozygous mice [1] = experiment: Blood pressure of homozygous mice on HF diet with/without doxycycline, weekly MTX injection (non-invasive tail pressure measurement); format: in vivo; conditions: male homozygous mice, HF diet with/without Dox, MTX 1 mg/kg i.p. once a week; FIG. 12A
Method: The mice are divided into 3 groups for experiments, wild-type mice (Wt), homozygous mice (Hom) and heterozygous mice (Het), with each group having 15 mice. The mice are fed with normal diet (Chow) until 8 weeks old, and are administrated tetracycline analog doxycycline (1 to 2 mg/ml) with water. The blood pressure changes of mice are measured periodically. The method for measuring the blood pressure of mice is the method of non-invasive tail pressure measurement (iiTC Life Science, Woodland Hills, CA), wherein the mice are fixed in the sleeve and stay quiet in the sleeve for 10 minutes. Then the instrument is operated to measure the blood pressure at the tail of mice using […], three measurements are made for each operation, and the average is taken. Mice blood is collected, and body weight, heart weight, spleen weight, blood lipids and blood pressure of mice are measured.
(§1) Homozygous mice, divided into 5 groups, are to fed with normal diet (Chow), high-fat diet (HF), high-fat diet plus boostin (HF+D), high-fat diet plus methotrexate (MTX) (HF+M), and high-fat diet plus boostin and methotrexate (HF+D+M). […] The blood pressure changes of the mice are periodically detected, and the data such as blood, blood lipids, blood pressure and death data etc. of the mice are collected. […]

homozygous mice [2] = experiment: Survival of hypertensive (Dox) homozygous mice on high-fat diet, weekly methotrexate injection; format: in vivo; conditions: hypertension (Dox) combined with high-fat diet, methotrexate 1 mg/kg weekly, at 8 weeks of co-administration, control 43%, FIG. 12B
Description: (§2) Homozygous mice, divided into 5 groups, are to fed with normal diet (Chow), high-fat diet (HF), high-fat diet plus boostin (HF+D), high-fat diet plus methotrexate (MTX) (HF+M), and high-fat diet plus boostin and methotrexate (HF+D+M). […] Homozygous mice are fed with normal diet (Chow) until 8 weeks old, and are fed with high fat diet HF (HF formula: 21.2% fat, 48.7% carbohydrate, 17.3% protein, and 0.25% cholesterol) for 8 weeks. The mice are divided in to groups, with each group having 15 mice. The HF group is fed with high-fat diet, and is injected with 100 μl of physiological saline weekly. The HF+M group is fed with high-fat diet, and is injected with methotrexate at a dose of 1 mg/kg once a week. The HF+D group is fed with high-fat diet and 1-2 mg/ml of doxycycline together with drinking water, and is injected with 100 μl of physiological saline weekly. The HF+D+M group is fed with high-fat diet, injected with methotrexate at a dose of 1 mg/kg once a week, and fed with doxycycline at 1-2 mg/ml together with drinking water. The blood pressure changes of the mice are periodically detected, and the data such as blood, blood lipids, blood pressure and death data etc. of the mice are collected.
As shown in FIGS. 11A to 11D, hypertension combined with a high-fat diet induce higher accumulation of triglycerides in the blood of mice. […]

homozygous mice [3] = experiment: Quantification of ascending aortic atherosclerotic plaques in homozygous mice on HF diet with/without Dox, weekly MTX; format: in vivo; conditions: hypertensive (Dox) homozygous mice fed HF diet for 8 weeks, control 46%, P<0.05, FIGS. 12C-D
Description: Homozygous mice (Hom) and ApoE knockout mice (KO) are used as controls, the experiment is employed by dividing the mice into four groups, each group has 15 mice, four groups being normal diet group (Chow), high fat diet group (HF), higher fat diet group (H-HF) and ultra-high fat diet group (CH-HF). The mice are fed with normal diet group (Chow) until 8 weeks old and then are fed with different high fat diet, respectively being HF feed (HF formula: 21.2% fat, 48.7% carbohydrate, 17.3% protein, and 0.25% cholesterol), H-HF feed (H-HF formula: 21.2% fat, 48.7% carbohydrate, 17.3% protein, and 1.25% cholesterol), and CH-HF feed (CH-HF formula: 21.2% fat, 48.7% carbohydrate, 17.3% protein, 1.25% cholesterol, and 0.5% cholic acid). After 8 weeks of treatment, collecting the blood of the mice, detecting the body weight, heart weight, spleen weight and blood lipids of the mice, and isolating the mice aorta for oil red O staining so as to quantify the atherosclerotic plaque content.
as §1

homozygous mice [4] = experiment: Detection of cytokines and adhesion molecules in plasma of homozygous mice on HF diet with/without Dox, weekly MTX; format: in vivo
Description: as §2
As shown in FIGS. 11A to 11D, hypertension combined with a high-fat diet induce higher accumulation of triglycerides in the blood of mice. The inventors, using homozygous mice, have studied the effects of methotrexate (MTX) (an anti-inflammatory drug) on cardiovascular. Male homozygous mice are fed with HF diet with/without the addition of doxycycline (Dox), and are further randomized by intraperitoneal injection of MTX or control (vector) weekly. […] Hypertension combined with a high-fat diet induced higher mortality of mice, but if injected with methotrexate weekly, the survival rate of mice is increased at 8 weeks of co-administration (74% versus 43%, FIG. 12B).

[5] = test system: IL-6, ICAM-1, E-selectin, VCAM-1 expressions; conditions: general statement on the anti-inflammatory drug; cited from earlier work
[6] = test system: patients suffering from long-term inflammatory diseases such as rheumatoid arthritis; conditions: clinically, low doses; patients with long-term inflammatory diseases such as rheumatoid arthritis; ref. [10]; cited from earlier work
[7] = hypertensive (Dox) homozygous mice, HF diet, MTX weekly, FIG. 12H-J
[8] = induced hypertensive MTX group compared with control group, FIGS. 12K-S

CN(Cc1cnc2nc(N)nc(N)c2n1)c1ccc(C(=O)N[C@@H](CCC(=O)O)C(=O)O)cc1 [MTX, methotrexate]
blood pressure of the mice (homozygous mice [1]): would not alter | survival rate of mice (homozygous mice [2]): 74% | atherosclerotic lesions (homozygous mice [3]): 34% | plasma concentration of MCP-5, intercellular adhesion molecule-1 and vascular cell adhesion molecules (homozygous mice [4]; homozygous mice having normal blood pressure, HF diet, MTX weekly, FIG. 12H-J): would not produce any effect | plasma concentration of intercellular adhesion molecule-1 (homozygous mice [4]; [7]): would significantly reduce | plasma concentration of monocyte chemoattractant protein (MCP)-5 (homozygous mice [4]; [7]): would significantly reduce | E-selectin level in plasma (homozygous mice [4]; [8]): decreased level | IL-1β level in plasma (homozygous mice [4]; [8]): decreased level | IL-6 level in plasma (homozygous mice [4]; [8]): decreased level | IL-17 level in plasma (homozygous mice [4]; [8]): decreased level | MCP-1 level in plasma (homozygous mice [4]; [8]): decreased level | P-selectin level in plasma (homozygous mice [4]; [8]): decreased level | granulocyte colony-stimulating factor level in plasma (homozygous mice [4]; [8]): decreased level | interferon-γ level in plasma (homozygous mice [4]; [8]): decreased level | tumor necrosis factor-α level in plasma (homozygous mice [4]; [8]): decreased level | IL-6, ICAM-1, E-selectin, VCAM-1 expressions [5]: can down-regulate | cardiovascular risk in patients [6]: could reduce cardiovascular risk
